Source: paper PMC4250310 (Bioorganic & medicinal chemistry letters, 2014)
pEC50: −log10 of the molar value. In brackets after ≈: the same amount, converted by molar mass.

Tests used:
[1] = ref our previous work; cited from earlier work
in vitro [2] = conditions: plasma
PC12-G93A-YFP cell line = test: cytotoxicity protection assay against mutant SOD1-induced cytotoxicity; type: cell-based; conditions: read-out: Potency (EC50)
in vitro [3] = conditions: mouse, microsomes

In the case of `O=C1CC(=O)N(CCc2ccccc2)C(=O)N1CCc1ccccc1` [Compound 1, 1,3-bis(2-phenylethyl)pyrimidine-2,4,6(1H,3H,5H)-trione], the maximum tolerated dose [1] is listed as 100 mg/kg, the half-life (in vitro [2]) is listed as 63.5 min and the pEC50 (PC12-G93A-YFP cell line) is listed as 5.77. The half-life (in vitro [3]) was 16 min and the solubility (physchem) was 31.3 µM (≈ 10.5 µg/mL).
